Experimental data taken from patent US6338955B2, “β1-4 N-acetylglucosaminyltransferase and gene encoding” (Kirin Beer Kabushiki Kaisha, priority 1996, dated 2002).
Entries after “also recorded” stand apart in the source; their conditions may differ. Like-named read-outs stand apart in the source and are kept apart here.

Experiments:
GnT-IV [1] = biological target: T1, GnT-IV (Bos taurus, UniProt O77836); assay: Action of GnT-IV on glycoproteins (UDP-[14C]GlcNAc, SDS-PAGE and fluorography); assay type: biochemical, bovine; details: 37° C., 20 hours; FIG. 17 Panel B lanes 2 and 5
T1 construct: it is thought that GnT-IV from bovine small intestine is a glycoprotein having at least Asn-linked sugar chains; from tissue; host or cells: bovine small intestine (microsome fraction, Triton X-100 solubilized, purified to Sample 7)
T1 sequence (O77836 1-535): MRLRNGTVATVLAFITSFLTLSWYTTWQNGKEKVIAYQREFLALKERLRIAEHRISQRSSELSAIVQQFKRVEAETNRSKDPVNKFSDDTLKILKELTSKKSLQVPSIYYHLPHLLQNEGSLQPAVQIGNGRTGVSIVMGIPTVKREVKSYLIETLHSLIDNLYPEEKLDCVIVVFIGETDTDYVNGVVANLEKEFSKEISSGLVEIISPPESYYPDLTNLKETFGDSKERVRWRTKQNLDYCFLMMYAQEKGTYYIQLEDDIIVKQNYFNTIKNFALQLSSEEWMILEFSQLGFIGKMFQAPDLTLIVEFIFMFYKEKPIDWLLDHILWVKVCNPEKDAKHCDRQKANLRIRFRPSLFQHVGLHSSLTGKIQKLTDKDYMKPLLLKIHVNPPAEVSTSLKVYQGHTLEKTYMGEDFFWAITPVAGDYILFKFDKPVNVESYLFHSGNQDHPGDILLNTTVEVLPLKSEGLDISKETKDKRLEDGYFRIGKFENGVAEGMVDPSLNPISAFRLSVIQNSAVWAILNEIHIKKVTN
Description: GnT-IV reaction conditions: To 10 μl of a solution containing […] of GnT-IV, a substrate glycoprotein equivalent to 1.6 nmol of biantennary type sugar chains (for fetuin alone, the sugar chain content was 1.6 nmol) and 450 nCi of UDP-[^14C] […] One tenth of the resultant solution was analyzed by SDS-PAGE and fluorography.
For SDS-PAGE, 10-20% gradient gel (Daiichi Kagaku) was used. For fluorography, Amplify (Amersham) was used to expose the samples to X ray film for 20 hours.
GlcNAc as a sugar donor. Then, the reaction products were analyzed by SDS-PAGE and fluorography (Panels A and B, FIG. 17). As shown in lanes 2 and 5 of Panel B in FIG. 17, transfer of [^14 C] GlcNAc to asialo agalacto human transferrin and asialo agalacto, CHO cell-derived recombinant human erythropoietin.

GnT-IV [2] = biological target: T2, GnT-IV (Bos taurus, UniProt O77836); assay: Specific assay for GnT-IV activity (pyridylaminated oligosaccharide acceptor, HPLC) with purified enzyme; assay type: biochemical, bovine; details: for Activity (%), Inhibition of GnT-IV by Nucleotides: nucleotide 2 mM in the presence of 0.5 mM UDP-GlcNAc, nothing added = 100%
T2 construct: it is thought that GnT-IV from bovine small intestine is a glycoprotein having at least Asn-linked sugar chains; from tissue; host or cells: bovine small intestine (microsome fraction, Triton X-100 solubilized, purified to Sample 7)
T2 sequence (O77836 93-535 limits assumed): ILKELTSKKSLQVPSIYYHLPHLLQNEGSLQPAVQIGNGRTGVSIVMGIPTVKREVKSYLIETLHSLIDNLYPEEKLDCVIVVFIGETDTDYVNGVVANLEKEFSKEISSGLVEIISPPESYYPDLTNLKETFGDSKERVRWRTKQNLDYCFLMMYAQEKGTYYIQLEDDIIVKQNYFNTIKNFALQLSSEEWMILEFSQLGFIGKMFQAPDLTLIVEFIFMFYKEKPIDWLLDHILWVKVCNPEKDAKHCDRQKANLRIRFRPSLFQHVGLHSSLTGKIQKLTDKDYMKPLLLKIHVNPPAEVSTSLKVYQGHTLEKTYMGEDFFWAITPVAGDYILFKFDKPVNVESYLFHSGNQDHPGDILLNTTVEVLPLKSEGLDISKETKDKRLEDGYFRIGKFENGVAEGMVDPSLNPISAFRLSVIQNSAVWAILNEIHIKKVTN
Description: Then, the reaction was terminated by boiling the solution for 2 minutes. […] The fluorescence of pyridylamino groups was detected using excitation at 320 nm and emission at 400 nm.

[3] = additive 10 mM added to GnT-IV sample freed of metal ions, activity with 10 mM MnCl2 = 100%

## asialo agalacto human transferrin: human transferrin treated with sialidase and β-galactosidase; glycoprotein substrate
GnT-IV [1]
  Transfer of [14C]GlcNAc to glycoprotein by GnT-IV: transfer of [^14 C] GlcNAc

## [Cl-].[Cl-].[Mg+2] [MgCl2]
GnT-IV [2]; [3]
  Activity (%), Divalent Cation Requirement of GnT-IV: 72.5%

## O=C(O)[C@H]1O[C@H](OP(=O)(O)OP(=O)(O)OC[C@H]2O[C@@H](n3ccc(=O)[nH]c3=O)[C@H](O)[C@@H]2O)[C@H](O)[C@@H](O)[C@@H]1O [UDP-glucuronic acid]
GnT-IV [2]
  Activity (%), Inhibition of GnT-IV by Nucleotides: 92.3%

## [Cl][Mn][Cl] [MnCl2]
GnT-IV [2]
  Requirement of divalent cation: effect of additive on activity: greatest effect
GnT-IV [2]; [3]
  Activity (%), Divalent Cation Requirement of GnT-IV: 100%

## O=c1ccn([C@@H]2O[C@H](CO)[C@@H](O)[C@H]2O)c(=O)[nH]1 [Uridine]
GnT-IV [2]
  Inhibition of GnT-IV by nucleotides / UDP derivatives: little inhibitory effect; also recorded: do not have inhibitory effect
  Activity (%), Inhibition of GnT-IV by Nucleotides: 115%

## [Cl-].[Cl-].[Co+2] [CoCl2]
GnT-IV [2]
  Activity (%), Divalent Cation Requirement of GnT-IV: 74.8%
  Effect of divalent cation relative to that of Mn2+: about 70%

## Cc1cn([C@H]2C[C@H](O)[C@@H](COP(=O)(O)OP(=O)(O)O)O2)c(=O)[nH]c1=O [TDP]
GnT-IV [2]
  Inhibition of GnT-IV by nucleotides / UDP derivatives: little inhibitory effect; also recorded: do not have inhibitory effect
  Activity (%), Inhibition of GnT-IV by Nucleotides: 110%

## [Cl][Fe][Cl] [FeCl2]
GnT-IV [2]
  Requirement of divalent cation: effect of additive on activity: Weak effect
GnT-IV [2]; [3]
  Activity (%), Divalent Cation Requirement of GnT-IV: 9.8%

## O=c1ccn([C@@H]2O[C@H](COP(=O)(O)OP(=O)(O)O)[C@@H](O)[C@H]2O)c(=O)[nH]1 [UDP]
GnT-IV [2]
  Inhibition of GnT-IV by nucleotides / UDP derivatives: inhibited the activity of this enzyme most strongly
  Activity (%), Inhibition of GnT-IV by Nucleotides: 27.3%

## [Cl][Cu][Cl] [CuCl2]
GnT-IV [2]; [3]
  Activity (%), Divalent Cation Requirement of GnT-IV: 0%

## Nc1ccn([C@@H]2O[C@H](COP(=O)(O)OP(=O)(O)O)[C@@H](O)[C@H]2O)c(=O)n1 [CDP]
GnT-IV [2]
  Inhibition of GnT-IV by nucleotides / UDP derivatives: little inhibitory effect; also recorded: do not have inhibitory effect
  Activity (%), Inhibition of GnT-IV by Nucleotides: 112%

## asialo agalacto, CHO cell-derived recombinant human erythropoietin: recombinant human erythropoietin with high biantennary sugar chain content treated with sialidase and β-galactosidase
GnT-IV [1]
  Transfer of [14C]GlcNAc to glycoprotein by GnT-IV: transfer of [^14 C] GlcNAc

## NCCCCCCOP(=O)(O)OP(=O)(O)OCC1OC(n2ccc(=O)[nH]c2=O)C(O)C1O (centres unmarked) [UDP-hexanolamine]
GnT-IV [2]
  Activity (%), Inhibition of GnT-IV by Nucleotides: 73.6%

## O=c1ccn([C@@H]2O[C@H](COP(=O)(O)OP(=O)(O)OP(=O)(O)O)[C@@H](O)[C@H]2O)c(=O)[nH]1 [UTP]
GnT-IV [2]
  Activity (%), Inhibition of GnT-IV by Nucleotides: 88.2%

## CC(=O)N[C@H]1[C@@H](OP(=O)(O)OP(=O)(O)OC[C@H]2O[C@@H](n3ccc(=O)[nH]c3=O)[C@H](O)[C@@H]2O)O[C@H](CO)[C@H](O)[C@@H]1O [UDP-N-acetylgalactosamine]
GnT-IV [2]
  Activity (%), Inhibition of GnT-IV by Nucleotides: 59.7%

## OCC(O)CO [glycerol]
GnT-IV [2]
  Stabilization of the enzyme: Stabilizing effect is recognized

## O=c1ccn([C@@H]2O[C@H](COP(=O)(O)O)[C@@H](O)[C@H]2O)c(=O)[nH]1 [UMP]
GnT-IV [2]
  Inhibition of GnT-IV by nucleotides / UDP derivatives: little inhibitory effect
  Activity (%), Inhibition of GnT-IV by Nucleotides: 97.3%

## CC(=O)N[C@H]1[C@@H](OP(=O)(O)OP(=O)(O)OC[C@H]2O[C@@H](n3ccc(=O)[nH]c3=O)[C@H](O)[C@@H]2O)O[C@H](CO)[C@@H](O)[C@@H]1O [UDP-GlcNAc]
GnT-IV [2]; GnT-II product type oligosaccharide as receptor substrate, conditions (i)/Reference Example 2, read-out: Km toward UDP-GlcNAc
  Km: 220 µM

## [Ca+2].[Cl-].[Cl-] [CaCl2]
GnT-IV [2]
  Requirement of divalent cation: effect of additive on activity: Weak effect
GnT-IV [2]; [3]
  Activity (%), Divalent Cation Requirement of GnT-IV: 7.2%

## O=c1ccn([C@H]2C[C@H](O)[C@@H](COP(=O)(O)OP(=O)(O)O)O2)c(=O)[nH]1 [2′-deoxy-UDP]
GnT-IV [2]
  Activity (%), Inhibition of GnT-IV by Nucleotides: 67.4%
